# Values quoted from earlier work, collected in patent US9708371B2, “Treatments for gastrointestinal disorders” (Ironwood Pharmaceuticals, Inc., priority 2011, dated 2017).
# Bridge positions count the residues as written; N and C are the ends. Peptide text beside a SMILES is read from it.
# Settings: therapeutic dose levels
structure (smiles),measurement,value
"C[C@@H]1NC(=O)[C@@H]2CCCN2C(=O)[C@H](CC(N)=O)NC(=O)[C@@H]2CSSC[C@H](N)C(=O)N[C@H]3CSSC[C@H](NC1=O)C(=O)N[C@@H]([C@@H](C)O)C(=O)NCC(=O)N[C@H](C(=O)N[C@@H](Cc1ccc(O)cc1)C(=O)O)CSSC[C@H](NC(=O)[C@H](Cc1ccc(O)cc1)NC(=O)[C@H](CCC(=O)O)NC3=O)C(=O)N2 [Linaclotide, Cys Cys Glu Tyr Cys Cys Asn Pro Ala Cys Thr Gly Cys Tyr] (H-CCEYCCNPACTGCY-OH; disulfide 1-6, 2-10, 5-13 (inferred); N-terminus and C-terminus assumed)",levels seen systemically after oral administration,no detectable levels
